Source: ChEMBL document CHEMBL4011620, “Design and Discovery of N-(2-Methyl-5'-morpholino-6'-((tetrahydro-2H-pyran-4-yl)oxy)-[3,3'-bipyridin]-5-yl)-3-(trifluoromethyl)benzamide (RAF709): A Potent, Selective, and Efficacious RAF Inhibitor Targeting RAS Mutant Cancers” (J Med Chem, 2017)
pIC50: −log10 of the molar value. Calls of active or inactive are those of the source. No cut-off for these calls is given here.

Tests used:
[1] = Apparent permeability across basolateral to apical side in human Caco2 cells at pH 7.4 by LC/MS/MS analysis; details: Caco-2, pH 7.4
[2] = biological target: T1, Serine/threonine-protein kinase B-raf (Homo sapiens, UniProt P15056); assay: Binding affinity to human BRAF (429 to 741 residues) expressed in mammalian expression system at 1 uM by kinome scan assay relative to control
T1 sequence (P15056 whole entry, the tested form may be a part): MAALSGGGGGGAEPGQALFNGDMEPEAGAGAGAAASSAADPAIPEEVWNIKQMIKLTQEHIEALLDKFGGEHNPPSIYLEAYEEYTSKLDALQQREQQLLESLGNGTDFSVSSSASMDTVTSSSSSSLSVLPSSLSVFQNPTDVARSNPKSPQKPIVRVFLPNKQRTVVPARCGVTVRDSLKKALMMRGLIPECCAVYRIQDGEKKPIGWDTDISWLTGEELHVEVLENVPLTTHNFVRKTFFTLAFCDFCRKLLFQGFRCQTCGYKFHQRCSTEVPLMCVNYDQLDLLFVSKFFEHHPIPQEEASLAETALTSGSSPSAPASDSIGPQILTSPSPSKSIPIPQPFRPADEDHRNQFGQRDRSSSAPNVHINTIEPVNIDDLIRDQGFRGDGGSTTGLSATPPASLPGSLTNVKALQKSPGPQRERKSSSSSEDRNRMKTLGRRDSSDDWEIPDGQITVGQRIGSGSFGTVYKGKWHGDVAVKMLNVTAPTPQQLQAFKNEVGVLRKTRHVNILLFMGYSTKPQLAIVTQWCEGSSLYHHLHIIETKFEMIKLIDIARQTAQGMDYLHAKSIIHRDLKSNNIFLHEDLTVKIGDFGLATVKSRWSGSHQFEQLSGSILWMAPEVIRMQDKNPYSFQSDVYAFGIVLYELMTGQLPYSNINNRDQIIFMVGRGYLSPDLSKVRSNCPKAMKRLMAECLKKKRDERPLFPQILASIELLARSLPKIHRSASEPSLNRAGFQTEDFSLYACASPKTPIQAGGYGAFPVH

[3] = tested on: Serine/threonine-protein kinase B-raf (Homo sapiens), P15056 [V600E]; assay: Binding affinity to human BRAF V600E mutant (429 to 741 residues) expressed in mammalian expression system at 1 uM by kinome scan assay relative to control
Sequence of Serine/threonine-protein kinase B-raf (Homo sapiens), P15056 [V600E] (P15056 whole entry V600E, the tested form may be a part): as the sequence (P15056 whole entry, the tested form may be a part) above, with V600E counted along it

[4] = biological target: Platelet-derived growth factor receptor alpha (Homo sapiens) (UniProt P16234); assay: Binding affinity to human PDGFRalpha (330 to 640 residues) expressed in mammalian expression system at 1 uM by kinome scan assay relative to control
Sequence of Platelet-derived growth factor receptor alpha (Homo sapiens) (P16234 whole entry, the tested form may be a part): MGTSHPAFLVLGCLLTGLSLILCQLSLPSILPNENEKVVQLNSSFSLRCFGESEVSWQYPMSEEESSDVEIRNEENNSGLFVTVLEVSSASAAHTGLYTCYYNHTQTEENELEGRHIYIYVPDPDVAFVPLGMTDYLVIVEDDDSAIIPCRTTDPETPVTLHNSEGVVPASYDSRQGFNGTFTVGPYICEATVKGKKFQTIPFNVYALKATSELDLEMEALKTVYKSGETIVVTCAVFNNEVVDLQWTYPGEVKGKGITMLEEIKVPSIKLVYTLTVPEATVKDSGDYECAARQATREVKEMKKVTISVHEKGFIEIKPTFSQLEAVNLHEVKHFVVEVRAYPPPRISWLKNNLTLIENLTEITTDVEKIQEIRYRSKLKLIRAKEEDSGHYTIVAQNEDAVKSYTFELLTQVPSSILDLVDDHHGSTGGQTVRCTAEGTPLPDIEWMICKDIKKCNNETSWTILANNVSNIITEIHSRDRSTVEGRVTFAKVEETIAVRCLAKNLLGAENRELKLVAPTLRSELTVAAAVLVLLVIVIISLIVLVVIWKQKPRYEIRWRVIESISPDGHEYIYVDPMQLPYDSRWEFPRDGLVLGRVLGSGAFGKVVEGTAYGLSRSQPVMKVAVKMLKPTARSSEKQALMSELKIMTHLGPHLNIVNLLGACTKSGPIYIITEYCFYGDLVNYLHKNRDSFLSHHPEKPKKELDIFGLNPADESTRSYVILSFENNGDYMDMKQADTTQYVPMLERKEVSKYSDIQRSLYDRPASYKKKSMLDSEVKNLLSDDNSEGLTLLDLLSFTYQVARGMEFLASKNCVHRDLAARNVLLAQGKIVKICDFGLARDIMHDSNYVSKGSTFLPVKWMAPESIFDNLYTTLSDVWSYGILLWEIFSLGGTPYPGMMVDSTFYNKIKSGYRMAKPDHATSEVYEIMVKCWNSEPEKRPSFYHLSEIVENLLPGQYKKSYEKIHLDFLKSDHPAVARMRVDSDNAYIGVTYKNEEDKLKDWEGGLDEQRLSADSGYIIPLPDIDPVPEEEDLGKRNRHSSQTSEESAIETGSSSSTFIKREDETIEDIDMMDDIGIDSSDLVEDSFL

[5] = biological target: Tyrosine-protein kinase FRK (Homo sapiens) (UniProt P42685); assay: Binding affinity to human FRK (215 to 503 residues) expressed in mammalian expression system at 1 uM by kinome scan assay relative to control
Sequence of Tyrosine-protein kinase FRK (Homo sapiens) (P42685 whole entry, the tested form may be a part): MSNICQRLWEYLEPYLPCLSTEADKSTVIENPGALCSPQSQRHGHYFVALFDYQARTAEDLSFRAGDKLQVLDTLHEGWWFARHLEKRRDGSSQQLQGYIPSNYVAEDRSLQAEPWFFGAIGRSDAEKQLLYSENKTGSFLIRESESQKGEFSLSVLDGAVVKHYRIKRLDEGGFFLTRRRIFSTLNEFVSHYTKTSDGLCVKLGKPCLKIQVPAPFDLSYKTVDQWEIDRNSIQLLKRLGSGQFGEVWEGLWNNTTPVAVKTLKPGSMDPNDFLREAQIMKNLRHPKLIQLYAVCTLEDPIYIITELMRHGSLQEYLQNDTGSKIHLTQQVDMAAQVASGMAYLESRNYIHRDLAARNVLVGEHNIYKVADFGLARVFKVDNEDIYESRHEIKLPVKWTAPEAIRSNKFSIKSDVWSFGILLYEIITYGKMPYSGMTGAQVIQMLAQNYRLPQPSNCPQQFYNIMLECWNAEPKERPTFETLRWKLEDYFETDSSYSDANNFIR

[6] = Cmax in rat at 10 mg/kg, po; format: ADME, organism-based; parameters: dose 10 mg/kg, route oral; details: in vivo
[7] = Cmax in dog at 1 mg/kg, po; format: ADME, organism-based, Canis lupus familiaris; parameters: dose 1 mg/kg, route oral; details: in vivo
[8] = AUC (infinity) in mouse at 3 mg/kg, po; format: ADME, organism-based; parameters: dose 3 mg/kg, route oral, time infinity; details: in vivo
[9] = AUC (infinity) in rat at 10 mg/kg, po; format: ADME, organism-based; parameters: dose 10 mg/kg, route oral, time infinity; details: in vivo
[10] = AUC (infinity) in dog at 1 mg/kg, po; format: ADME, organism-based, Canis lupus familiaris; parameters: dose 1 mg/kg, time infinity, route oral; details: in vivo
[11] = Clearance in mouse at 1 mg/kg, iv or 3 mg/kg, po; format: ADME, organism-based; details: in vivo
[12] = Clearance in rat at 3 mg/kg, iv or 10 mg/kg, po; format: ADME, organism-based; details: in vivo
[13] = Clearance in dog at 0.3 mg/kg, iv or 1 mg/kg, po; format: ADME, organism-based, Canis lupus familiaris; details: in vivo
[14] = Volume of distribution at steady state in mouse at 1 mg/kg, iv or 3 mg/kg, po; format: ADME, organism-based; details: in vivo, read-out: Vdss
[15] = Volume of distribution at steady state in rat at 3 mg/kg, iv or 10 mg/kg, po; format: ADME, organism-based; details: in vivo, read-out: Vdss
[16] = Volume of distribution at steady state in dog at 0.3 mg/kg, iv or 1 mg/kg, po; format: ADME, organism-based, Canis lupus familiaris; details: in vivo, read-out: Vdss
[17] = Oral bioavailability in rat at 10 mg/kg; format: ADME, organism-based; details: in vivo
[18] = Oral bioavailability in dog at 1 mg/kg; format: ADME, organism-based, Canis lupus familiaris; details: in vivo
[19] = Metabolic stability in rat plasma after 3 hrs; format: ADME, cell-free; details: read-out: Stability
[20] = Metabolic stability in mouse plasma after 3 hrs; format: ADME, cell-free; details: read-out: Stability
[21] = Metabolic stability in dog plasma after 3 hrs; format: ADME, cell-free, Canis lupus familiaris; details: read-out: Stability
[22] = Metabolic stability in human plasma after 3 hrs; format: ADME, cell-free; details: read-out: Stability
[23] = Protein binding in rat plasma; format: ADME, cell-free; details: read-out: PPB (converted)
[24] = Protein binding in dog plasma; format: ADME, cell-free, Canis lupus familiaris; details: read-out: PPB (converted)
[25] = Protein binding in human plasma; format: ADME, cell-free; details: read-out: PPB (converted)
[26] = tested on: Mus musculus; assay: In vivo inhibition of ERK phosphorylation at Thr202/Tyr204 and Thr185/Tyr187 in mouse xenografted with human Calu6 cells at 10 mg/kg, po administered as single dose measured at 24 hrs post dose; format: functional, organism-based
[27] = tested on: Plasma; assay: Plasma concentration in mouse xenografted with human Calu6 cells at 10 mg/kg, po administered as single dose measured at 24 hrs post dose by LC-MS analysis; format: ADME, organism-based; details: in vivo, BLD = below limit of detection
[28] = tested on: Mus musculus; assay: In vivo inhibition of ERK1/2 phosphorylation at Thr202/Tyr204 and Thr185/Tyr187 in mouse xenografted with human Calu6 cells at 200 mg/kg, po administered as single dose measured up to 24 hrs post dose; format: functional; details: Calu-6, po
[29] = tested on: Calu-6; assay: Antitumor activity against human Calu6 cells xenografted in nude mouse assessed as effect on tumor volume at 10 mg/kg/day, po administered for 15 days starting on day 12 post tumor implantation measured on day 27 relative to control; format: functional
[30] = tested on: Calu-6; assay: Antitumor activity against human Calu6 cells xenografted in nude mouse assessed as effect on tumor volume at 30 mg/kg/day, po administered for 15 days starting on day 12 post tumor implantation measured on day 27 relative to control; format: functional
[31] = tested on: Calu-6; assay: Antitumor activity against human Calu6 cells xenografted in nude mouse assessed as tumor regression at 200 mg/kg/day, po administered for 15 days starting on day 12 post tumor implantation measured on day 27 relative to control; format: functional
[32] = tested on: Mus musculus; assay: Toxicity in nude mouse xenografted with human Calu6 cells assessed as body weight loss at 10 to 200 mg/kg/day, po administered for 15 days starting on day 12 post tumor implantation measured twice per week of compound dosing; format: organism-based; details: in vivo, 360 h
[33] = tested on: Mus musculus; assay: Toxicity in nude mouse xenografted with human Calu6 cells assessed as mortality at 10 to 200 mg/kg/day, po administered for 15 days starting on day 12 post tumor implantation; format: organism-based; details: in vivo, 360 h
[34] = tested on: PC-3; assay: Antitumor activity against human PC3 cells xenografted in nude mouse assessed as reduction in tumor volume at 200 mg/kg/day, po dosed on day 12 continued until day 25 post implantation; format: functional, organism-based
[35] = biological target: T1, Serine/threonine-protein kinase B-raf; assay: Inhibition of full-length BRAF (unknown origin)
[36] = biological target: RAF proto-oncogene serine/threonine-protein kinase (Homo sapiens, UniProt P04049); assay: Activation of CRAF in human Calu6 cells assessed as increase in MEK phosphorylation after 2 hrs by FRET assay; format: cell-based
[37] = tested on: Mus musculus; assay: Time during which free plasma concentration exceeds cellular in vitro EC50 for CRAF-mediated ERK phosphorylation in mouse xenografted with human Calu6 cells at 200 mg/kg, po administered as single dose
[38] = tested on: Mus musculus; assay: In vivo inhibition of ERK1/2 phosphorylation at Thr202/Tyr204 and Thr185/Tyr187 in mouse xenografted with human Calu6 cells at 10 to 30 mg/kg, po administered as single dose measured at 24 hrs post dose; format: functional, organism-based
[39] = tested on: Mus musculus; assay: Toxicity in nude mouse xenografted with human PC3 cells assessed as body weight loss at 200 mg/kg/day, po administered from day 12 until day 25 post tumor implantation measured twice per week of compound dosing; format: organism-based; details: in vivo
[40] = tested on: Mus musculus; assay: Toxicity in nude mouse xenografted with human PC3 cells assessed as mortality at 200 mg/kg/day, po administered from day 12 until day 25 post tumor implantation; format: organism-based; details: in vivo
[41] = tested on: RAF proto-oncogene serine/threonine-protein kinase (Homo sapiens), P04049 [Y340E,Y341E]

Question: For `Cc1ncc(NC(=O)c2cccc(C(F)(F)F)c2)cc1-c1cnc(OC2CCOCC2)c(N2CCOCC2)c1`, which Papp B→A [1] is on record?
Answer: 13 ×10⁻⁶ cm/s

Question: What about the Activity [2] of the same compound?
Answer: > 99%

Question: What about the Activity [3] of the same compound?
Answer: > 99%

Question: What about the Activity [4] of the same compound?
Answer: 96%

Question: And the Activity [5]?
Answer: 92%

Question: And the Cmax [6]?
Answer: 800 nM

Question: What about the Cmax [7] of the same compound?
Answer: 500 nM

Question: And the AUC(0-inf) [8]?
Answer: 1.7 µM·h

Question: And the AUC(0-inf) [9]?
Answer: 1.5 µM·h

Question: And the AUC(0-inf) [10]?
Answer: 1 µM·h

Question: What about the clearance [11] of the same compound?
Answer: 35 mL/min/kg

Question: What about the clearance [12] of the same compound?
Answer: 50 mL/min/kg

Question: What about the clearance [13] of the same compound?
Answer: 14 mL/min/kg

Question: And the Vd [14]?
Answer: 1.2 L/kg

Question: And the Vd [15]?
Answer: 3.5 L/kg

Question: And the Vd [16]?
Answer: 3.1 L/kg

Question: And the bioavailability [17]?
Answer: 24%

Question: What about the bioavailability [18] of the same compound?
Answer: 48%

Question: And the remaining at 3 h [19]?
Answer: 85%

Question: What about the remaining at 3 h [20] of the same compound?
Answer: 82%

Question: What about the remaining at 3 h [21] of the same compound?
Answer: 95%

Question: What about the remaining at 3 h [22] of the same compound?
Answer: 101%

Question: What about the fraction unbound [23] of the same compound?
Answer: 0.02

Question: And the fraction unbound [24]?
Answer: 0.02

Question: What about the fraction unbound [25] of the same compound?
Answer: 0.02

Question: What about the inhibition [26] of the same compound?
Answer: inactive

Question: And the Cp [27]?
Answer: Bld

Question: What about the inhibition in vivo at 200 mg/kg [28] of the same compound?
Answer: ≥ 70%

Question: And the T/C [29]?
Answer: 92%

Question: And the T/C [30]?
Answer: 46%

Question: What about the Activity [31] of the same compound?
Answer: 92%

Question: What about the Activity [32] of the same compound?
Answer: Non-Toxic

Question: What about the Activity [33] of the same compound?
Answer: Non-Toxic

Question: What about the Activity [34] of the same compound?
Answer: inactive

Question: And the pIC50 [35]?
Answer: 9.40

Question: What about the Activity [36] of the same compound?
Answer: Not Active

Question: What about the Time [37] of the same compound?
Answer: 24 h

Question: And the inhibition [38]?
Answer: inactive

Question: What about the Activity [39] of the same compound?
Answer: Non-Toxic

Question: What about the Activity [40] of the same compound?
Answer: Non-Toxic

Question: And the T1/2 [41]?
Answer: > 6.5 h
